Like-named read-outs stand apart in the source and are kept apart here.
Assays:
HeLa cells [1] = conditions: cited from earlier work
MCF-7 cells = test: MTT antiproliferative assay on MCF-7; assay type: cell-based, human
Method: (§1) The antiproliferative assays of the products were carried out by a standard MTT method on human breast (MCF-7, T47D), cervical (HeLa, SiHa, C33A), and ovarian (A2780) cancer cells, and NIH/3T3 mouse embryonic fibroblast cell lines. In the first step, the diastereomeric and racemic mixtures 1–11 and the starting compound, juncuenin B, were tested to obtain information about their antiproliferative activity.
(§2) The antiproliferative activity and tumor selectivity of the compounds were measured by standard MTT assays. Tumor cell lines MCF-7, T47D, HeLa, A2780, and noncancerous NIH/3T3 were provided by European Collection of Authenticated Cell Cultures (ECACC, Salisbury, UK); cell lines SiHa and C33A by LGC Standards GmbH (Wesel, Germany). All chemicals and materials used for the antiproliferative assays were purchased from Sigma Aldrich Ltd. (Budapest, Hungary).
(§3) Growth-inhibition properties of racemates and pure enantiomer compounds were determined by standard MTT assays on six human malignant gynecological cell lines (MCF-7, T47D, HeLa, SiHa, C33A, A2780). To investigate tumor selectivity, the MTT assay was repeated on mouse embryonic fibroblast cells (NIH/3T3) under the same conditions. All cell lines were maintained in minimal essential medium (MEM) supplemented with 10% fetal bovine serum, 1% nonessential amino acids, and 1% penicillin–streptomycin–amphotericin B mixture, and were stored in humidified air containing 5% CO2 at 37 °C. All cell types were seeded into 96–well plates at a density of 5000 with the exception of C33a, which was seeded at a density of 10 000 and treated by increasing concentrations (0.1–30 μM) of the compounds for 72 h under cell culturing conditions. After the incubation, 5 mg/mL MTT [3-(4,5-dimethylthiazol-2-yl)-2,5-diphenyltetrazolium bromide] solution was added to samples for 4 h and precipitated blue formazan crystals were dissolved in DMSO. Absorbance values of the samples were measured at 545 nm using a microplate reader (Stat Fax-2100, Awareness Technologies Inc., Palm City, FL, USA) and untreated cells were used as control. Normalized sigmoidal dose–response curves were fitted to the determined data and the IC50 values were calculated by GraphPad Prism 5.01 (GraphPad Software, San Diego, CA, USA). Cisplatin (Ebewe Pharma GmbH, Unterach, Austria) was used as a reference agent in the same concentration range.

SiHa cells = test: MTT antiproliferative assay on SiHa; assay type: cell-based, human; conditions: for IC50: MTT, 0.1–30 μM, 72 h, mean ± SEM, read-out: calculated IC50 values, SiHa
Method: as §1, §2, §3

C33A cells = test: MTT antiproliferative assay on C33A; assay type: cell-based, human; conditions: for IC50: MTT, 0.1–30 μM, 72 h, mean ± SEM, read-out: calculated IC50 values, C33A
Method: as §1, §2, §3

[2] = test system: NIH/3T3 mouse embryonic fibroblast cells; test: MTT assay for tumor selectivity on NIH/3T3; assay type: cell-based; conditions: MTT, 0.1–30 μM, 72 h, mean ± SEM; read-out: calculated IC50 values, NIH/3T3
Method: as §1, §2, §3

T47D cells [3] = conditions: read-out: IC50 value from literature, T47D; cited from earlier work
A2780 cells [4] = conditions: read-out: IC50 value from literature, A2780; cited from earlier work
T47D cells [5] = test: MTT antiproliferative assay on T47D; assay type: cell-based, human; conditions: Homo sapiens, T47D, read-out: Growth inhibition (% ± SEM), T47d
Method: as §1, §2, §3

HeLa cells [6] = test: MTT antiproliferative assay on HeLa; assay type: cell-based, human; conditions: Homo sapiens, HeLa, read-out: Growth inhibition (% ± SEM), HeLa
Method: as §1, §2, §3

A2780 cells [7] = test: MTT antiproliferative assay on A2780; assay type: cell-based, human; conditions: Homo sapiens, read-out: Growth inhibition (% ± SEM), A2780
Method: as §1, §2, §3

C=Cc1c(C)c(O)cc2c1-c1ccc(O)c(C)c1CC2 [Juncusol]
cytotoxicity on HeLa cells (in words) (HeLa cells [1]): cytotoxic

N.N.[Cl][Pt][Cl] [cisplatin, reference compound]
IC50 (MCF-7 cells; MTT, 0.1–30 μM, 72 h, mean ± SEM, read-out: calculated IC50 values, MCF-7): 5.8 µM
IC50 (SiHa cells): 7.8 µM
IC50 (C33A cells): 1.8 µM
IC50 [2]: 2.7 µM
IC50 (T47D cells [3]): 9.8 µM
IC50 (A2780 cells [4]): 1.3 µM

C=Cc1c(C)c(O)cc2c1CCc1c-2ccc(O)c1C [juncuenin B, 1,7-dimethyl-8-vinyl-9,10-dihydrophenanthrene-2,6-diol]
inhibition at 10 µM (MCF-7 cells; Homo sapiens, MCF7, 10 μM, read-out: Growth inhibition (% ± SEM), MCF-7): 22.5 ± 2.02%
inhibition at 30 µM (MCF-7 cells; Homo sapiens, MCF7, 30 μM, read-out: Growth inhibition (% ± SEM), MCF-7): 64.9 ± 2.1%
fold stronger activity on MCF-7 than on T47D cells (MCF-7 cells; MCF-7 versus T47D): approximately 2.5 fold
inhibition at 10 µM (T47D cells [5]; 10 μM): < 10%
inhibition at 30 µM (T47D cells [5]; 30 μM): 54.2 ± 2.66%
inhibition at 10 µM (HeLa cells [6]; 10 μM): 88.8 ± 1.15%
inhibition at 30 µM (HeLa cells [6]; 30 μM): 93.58 ± 0.41%
inhibition at 10 µM (SiHa cells; Homo sapiens, SiHa, 10 μM, read-out: Growth inhibition (% ± SEM), SiHa): 22.7 ± 2.89%
inhibition at 30 µM (SiHa cells; Homo sapiens, SiHa, 30 μM, read-out: Growth inhibition (% ± SEM), SiHa): 33.1 ± 1.76%
IC50 (SiHa cells; Homo sapiens, SiHa): > 30 µM
inhibition at 10 µM (C33A cells; Homo sapiens, C-33-A, 10 μM, read-out: Growth inhibition (% ± SEM), C33a): 27.5 ± 2.45%
inhibition at 30 µM (C33A cells; Homo sapiens, C-33-A, 30 μM, read-out: Growth inhibition (% ± SEM), C33a): 79.33 ± 0.7%
IC50 (C33A cells; Homo sapiens, C-33-A): 12.7 ± 1.7 µM
inhibition at 10 µM (A2780 cells [7]; A2780, 10 μM): 61.2 ± 1.46%
inhibition at 30 µM (A2780 cells [7]; A2780, 30 μM): 85.91 ± 0.62%
IC50 (T47D cells [3]): > 30 µM

Source: paper PMC7707621, “Oxidized Juncuenin B Analogues with Increased Antiproliferative Activity on Human Adherent Cell Lines: Semisynthesis and Biological Evaluation” (Journal of Natural Products, 2020)
